This is an account of results in patent US20030181659A1, “Thrombopoietin receptor modulating peptide” (priority 2000, published 2003).

Where two headings read alike, the source gives them in different places. Where a SMILES comes first, the peptide text is derived from it.

Data set [1] has as its system carboplatin treated mice. The format is in vivo. The note with it: for effects on other blood components: mouse, in vivo. The source says: The model used for the in vivo experiments was reported previously (Akahori et al. (1996) Stem Cells 14:678-689, Akahori et al. (1996) Br. J. Haematol. 94:722-728, Shibuya et al. (1998) Blood 91:37-45, Andrews et al. (1996) Stem Cells 14:661-677). Improvements and modifications that were introduced are indicated below.
Each test group (PBS, TPO, or TPO-Rp) was given as a single daily dose administered by intraperitoneal injection. Daily doses were begun on day 0 and continued throughout the duration of the experimental period (day 10). Two i.p. injections of carboplatin 90 mg/kg each (PBS for group 11) were given on days 0 and 4.
Blood collections were taken on days −0 (basal), 8, 11, 14, and 18. Blood was obtained by sampling from the tail of mice (8 week old male […] mice), followed by cauterisation. A volume of 80 μl of blood from each mouse was collected into a heparinized blood collection tube. The 80 μl of blood was then mixed with 160 μl of saline containing sufficient EDTA (0.225%) to provide for anticoagulation.
[…] Carboplatin is used to induce thrombocytopenia. In order to work with a model that is as similar as possible to clinical situations, a previously reported carboplatin model (Akahori et al. (1996) Stem Cells 14:678-689, Akahori et al. (1996) Br. J. Haematol. 94:722-728, Shibuya et al. (1998) Blood 91:37-45, Andrews et al. (1996) Stem Cells 14:661-677) has been carefully studied and modified accordingly. Additionally, a method for animal bleeds has been carefully studied, in order to work with animals that show the highest response to a given drug and which are at the same time under a minimum of stress (see Methods above). Thus, the dose of carboplatin has been increased to 180 mg/kg and was given by two intraperitoneal (i.p) injections on day 0 (half-dose) and day 4 (second half-dose). Carboplatin induced severe thrombocytopenia on day eight.

Data set [2] deals with T1, TPO-R (Homo sapiens, UniProt P40238).
T1 construct: endogenous in cells; host or cells: TF-1 cells
T1 sequence (P40238 26-635): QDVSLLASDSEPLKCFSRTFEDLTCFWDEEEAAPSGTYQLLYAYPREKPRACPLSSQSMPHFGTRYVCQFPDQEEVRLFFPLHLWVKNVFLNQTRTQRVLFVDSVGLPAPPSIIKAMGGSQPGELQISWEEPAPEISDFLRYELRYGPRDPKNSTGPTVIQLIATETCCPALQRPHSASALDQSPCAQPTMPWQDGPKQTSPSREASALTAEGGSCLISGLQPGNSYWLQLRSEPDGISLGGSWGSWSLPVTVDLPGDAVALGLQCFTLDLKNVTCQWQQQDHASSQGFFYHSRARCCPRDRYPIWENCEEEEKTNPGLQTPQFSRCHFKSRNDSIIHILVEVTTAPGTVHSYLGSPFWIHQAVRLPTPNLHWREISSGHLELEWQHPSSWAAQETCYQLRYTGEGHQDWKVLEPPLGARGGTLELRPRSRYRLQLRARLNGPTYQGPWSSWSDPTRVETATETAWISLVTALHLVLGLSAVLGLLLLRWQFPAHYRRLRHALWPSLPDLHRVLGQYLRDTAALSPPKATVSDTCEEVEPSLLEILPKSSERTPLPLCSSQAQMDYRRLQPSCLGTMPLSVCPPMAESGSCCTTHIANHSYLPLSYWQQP
Briefly: In vitro signalling assay, dose response (STAT5 phosphorylation). The format is cell-based. The note with it: dose response 0.3 nM to 30 μM. The protocol:
(§1) Treatment of the cells: TF-1 cells were grown to an approximate density of 1×10^6 cells in RPMI 1640 media with 1× Penicillin/Streptomycin, 2 mM glutamin, 10% fetal bovine serum (Hyclone) and 1 ng/ml GM-CSF, centrifuged down and resuspended in media with 3% serum and no GM-CSF. The cells were starved for 14-18 hours at 37° C. (5% CO2), spun down and resuspended at a density of 1×10^6 cells/ml in a medium without serum and GM-CSF. 2 ml of cell suspension was treated with the oligopeptide or TPO (as indicated per experiment) at 37° C. for 30 min. (5% CO2). 10 ml of ice-cold cell wash buffer was added per Falcon tube and centrifuged down quickly at 4° C. and 3000 rpm,. The medium was carefully aspirated and the wash repeated twice with PBS.
The following steps were performed on ice. The medium was aspirated and 0.6 ml of 2× lysis buffer per tube was added. This was pipetted up and down and transferred to Eppendorf tubes, placed on ice for circa 30 min., and centrifuged at 14,000×g for 10 min. The supernatant (lysate) was used in immunoprecipitations.
Immunoprecipitations: 20-40 μL of GammaBind G Sepharose slurry was used per immunoprecipitation. The protein G beads were washed several times with 0.5× lysis buffer in Eppendorf tubes and 1-4 μg of PY-99 antibody (Santa Cruz-Biotechnology) was added per immunoprecipitation. The tubes were incubated with end-over-end rotation for 2 h at room temperature. The lysate was added and the tubes further incubated with end-over-end rotation overnight at 4° C. The beads were washed 3 times with 1× lysis buffer and once with 0.5 M Tris pH 6.5. 50 μl of SDS-sample buffer was added and the samples were boiled for 3 min prior to being applied to the gels.
Western blot analysis: about 10 μl/sample was run on a 8% Polyacrylamide mini gel, transferred to PVDF membrane (Millipore), blocked for 1 h in blocking buffer and incubated with αSTAT5 antibody (Santa Cruz-Biotechnology) overnight at 4° C. in an 1:1000 dilution. The membrane was washed, incubated with appropriate alkaline phosphatase conjugated secondary antibody, 1:2000 dilution at room temperature for 2 h. The PVDF-membrane was washed with Blotto and developed with NBT/BCIP (Cappel).
Dose-response curves of the present oligopeptides were performed and their activity was compared to the wild type TPO-Rp.
Peptide dose response activity was evaluated primarily by in vitro signalling assays. Phosphorylation and thus activation of STAT5, a substrate of JAK2 kinase that is activated by TPO-Rp signal transduction, was measured. Each oligopeptide activity was addressed through a broad range of concentrations. Peptides were tested at concentrations of 0.3, 3, 10, 30 nM and 0.1, 0.3, 3 and 30 μM TPO-Rp. Oligopeptide activity as a measurement of STAT5 phosphorylation in each experiment was compared to activity obtained with 10 ng/ml of TPO, a hormone concentration that gives a maximal activation and signalling through TPO-R. All the peptides were evaluated four to five times in independent experiments. All the data was collected, Western blots were scanned and the intensity of the STAT5 phosphorylation was quantified.
The activity of each oligopeptide was addressed as percent of its maximum activity; thus 100% activity was assigned to the value of STAT5 protein phosphorylation obtained with 30 μM oligopeptide concentration.

In data set [3] the target is T1, TPO-R. Briefly: In vitro signalling assay (STAT5 phosphorylation in TF-1 cells) of stored peptide samples. The note with it: day 30, solution in water stored at −20° C. Format: cell-based. On the procedure: as §1
The following steps were performed on ice. The medium was aspirated and 0.6 ml of 2× lysis buffer per tube was added. […]
The activity of the oligopeptides of the present invention and wild type TPO-Rp was examined by in vitro signalling assays. […] Phosphorylation and thus activation of STATS, a substrate of JAK2 kinase that is activated by TPO-R signal transduction, was measured. […] All the peptides were evaluated three to four times in independent experiments. All the data were collected, Western blots were scanned, and intensity of the STAT5 phosphorylation was quantified.

The subject of data set [4] is carboplatin treated mice. Briefly: Carboplatin (200 mg/kg) induced thrombocytopenia in mice. The format is in vivo. The note with it: for platelet number: carboplatin 200 mg/kg. The protocol: Each test group was given a single daily dose administered by intraperitoneal injection. Daily doses were begun on day 0 and continued throughout the duration of the experimental period (day 13). Minimal doses were given on indicated days: 0 and 4; 0, 4 and 8; 0, 4, 8 and 12; days 8 through 14. Two i.p. injections of carboplatin 100 mg/kg were given on days 0 and 4.
Blood collections were taken on days 0 (basal), 8, 11, 14 and 18. Blodd was obtained by sampling from the tails of mice (8 week old male C57BL/6J mice) followed by cauterisation. A volume of 80 μl of blood from each mouse was collected into a heparinized blood collection tube. The 80 μl of blood was then mixed with 160 μl of saline containing sufficient EDTA (0.225%) to provide for anticoagulation.
The dose of carboplatin has been increased to 200 mg/kg and was given as a cumulative dose by two intraperitoneal (i.p.) injections on day 0 (half-dose) and day 4 (second half-dose). Carboplatin induced severe thrombocytopenia on day eleven.

The target of data set [5] is thrombopoietin receptor (TPO-R) on TF-1 cells (UniProt P40238). Briefly: cell-based or functional assay.

For the compound `CC(C)C[C@H](NC(=O)[C@H](CCC(N)=O)NC(=O)[C@H](CC(C)C)NC(=O)[C@H](CCCNC(=N)N)NC(=O)[C@H](Cc1ccc(O)cc1)NC(=O)[C@H](CCCNC(=N)N)NC(=O)[C@H](CO)NC(=O)[C@H](C)NC(=O)[C@@H]1CCCN1C(=O)[C@H](C)NC(=O)[C@H](CC(C)C)NC(=O)[C@H](CCC(=O)O)NC(=O)[C@H](CC(C)C)NC(=O)[C@@H](NC(=O)CN)[C@@H](C)O)C(=O)O` [SEQ ID No. 4] (H-GTLELAPASRYRLQL-OH; N-terminus and C-terminus assumed), the “effect on platelet levels / thrombocytopenia” value in data set [1] (dose not given, carboplatin 180 mg/kg) was “some effect on platelet levels”. Besides, the “effects on other blood components” value in data set [1] is recorded as “None of the peptides used”. Also, in data set [2], the “activity compared to wild type TPO-Rp (STAT5 phosphorylation)” value (“activity compared to wild type TPO-Rp” for short) is given as “retained activity comparable to wild type TPO-Rp”.

In the case of `CC(C)C[C@H](NC(=O)[C@H](CCCNC(=N)N)NC(=O)[C@H](C)NC(=O)[C@H](CCCNC(=N)N)NC(=O)[C@H](CC(C)C)NC(=O)[C@H](CCC(N)=O)NC(=O)[C@H](CC(C)C)NC(=O)[C@H](CCCNC(=N)N)NC(=O)[C@H](Cc1ccc(O)cc1)NC(=O)[C@H](CCCNC(=N)N)NC(=O)[C@H](CO)NC(=O)[C@H](CCCNC(=N)N)NC(=O)[C@@H]1CCCN1C(=O)[C@H](CCCNC(=N)N)NC(=O)[C@H](CC(C)C)NC(=O)[C@H](CCC(=O)O)NC(=O)[C@H](CC(C)C)NC(=O)[C@@H](NC(=O)CNC(=O)CNC(=O)[C@H](CCCNC(=N)N)NC(=O)[C@H](C)N)[C@@H](C)O)C(=O)N[C@@H](CC(N)=O)C(=O)O` [TPO-Rp wild type, ARGGTLELRPRSRYRLQLRARLN] (H-ARGGTLELRPRSRYRLQLRARLN-OH; N-terminus and C-terminus assumed), the “platelet (thrombocyte) number, percent change from basal” value in data set [1] (30 μg/kg/day i.p. daily from day 0, carboplatin 180 mg/kg) is recorded as “significantly increased the thrombocyte number”; in data set [1] (300 μg/kg/day i.p. daily from day 0, carboplatin 180 mg/kg), “significantly increased the thrombocyte number”. Also, the “survival rate of treated animals” value in data set [1] (CHI-square analysis, carboplatin 180 mg/kg) was “statistically significant survival rate”. Besides, in data set [1], the “effects on other blood components” value is reported as “None of the peptides used”. Besides, the “activity (STAT5 phosphorylation) after storage” value in data set [3] is “significant decrease in activity”.

Consider “SEQ ID No. 1: oligopeptide A1-L18 of wild type TPO-Rp, 18 amino acids, without R9A, R11A substitutions (ARGGTLELRPRSRYRLQL; listed as Homo sapiens)”, for which the “activity compared to wild type TPO-Rp” value in data set [2] is reported as “activity comparable to the wild type TPO-Rp”.

In the case of “SEQ ID No. 3: shortest oligopeptide, 15 amino acids long, G4-L18 of wild type TPO-Rp (GTLELRPRSRYRLQL; listed as Homo sapiens)”, in data set [2], the “activity compared to wild type TPO-Rp” value is “retained activity comparable to wild type TPO-Rp”.

On to “SEQ ID No. 5: oligopeptide G4-R21 of wild type TPO-Rp (GTLELRPRSRYRLQLRAR; listed as Homo sapiens)”, for which the “activity compared to wild type TPO-Rp” value in data set [2] was “activity identical to wild type TPO-Rp”.

For the compound “SEQ ID No. 6: oligopeptide G4-R21 of wild type TPO-Rp, R9A, R11A form (GTLELAPASRYRLQLRAR; listed as Homo sapiens)”, in data set [2], the “activity compared to wild type TPO-Rp” value was “activity identical to wild type TPO-Rp”.

For the compound “TPO: thrombopoietin, natural hormone, glycoprotein ligand of c-mpl (TPO-R)”, the platelet number result in data set [4] (2.4 μg/kg/day days 0 through 13) is “again unable to protect decrease in platelets”; in data set [4] (10 μg/kg/day days 0 through 13), “some effect that does have statistical significance”; in data set [1] (2.4 μg/kg/day i.p. daily, carboplatin 180 mg/kg), “unable to prevent a decrease in platelets”. The effect on thrombocytopenia result in data set [4] (10 μg/kg/day from day 8 through 14, carboplatin from day 0) was “did not show a significant effect on thrombocytopenia”.

In turn, “thrombopoietin (TPO) (from UniProt P40225 22-353) (ligand)” registered an STAT5 phosphorylation in TF-1 cells; TPO concentration giving maximal activation in data set [5] of 10 ng/mL.
